The record followed here is ChEMBL document CHEMBL5316268 (J Med Chem, 2023).

What is called Cmax is the maximum level reached in the sampled fluid or tissue. For orientation: solubility means how much of the substance goes into solution per volume. One may read the Ki as the equilibrium dissociation constant of an inhibitor or competing ligand from its target. A word on the inhibition in vivo: it is the change of the read-out against control, counted positive when it falls. As a reminder, the IC50 is the midpoint of a concentration-inhibition curve. As a reminder, the IC90 is the point of the concentration-response curve where the effect stands at 90%. For orientation: AUC means concentration integrated over time.

Series [1] in a line: Drug concentration in mouse plasma at 50 mg/kg, po administered as single dose measured after 24 hrs by LC/MS analysis. It counts as ADME, organism-based.
Series [2] in a line: Cmax in CD rat at 200 mg/kg, po measured for 24 hrs by LC-MS/MS analysis. It counts as ADME, organism-based. On the set-up: time 24 hrs, dose 200 mg/kg, route po. The settings on record: in vivo.
Series [3] can be described thus: Drug concentration in CD rat plasma at 50 to 500 mg/kg, po measured for 24 hrs by LC-MS/MS analysis. The following applies: dose 50-500 mg/kg. It counts as ADME, organism-based.
Series [4] can be described thus: Aqueous solubility of compound at pH 1 to 7. The series is classed as physicochemical. The settings on record: aqueous solution.
Series [5] deals with EG7. Put plainly: Antitumor activity against mouse EG7 cells implanted in C57BL/6 mouse assessed as reduction in tumor volume at 100 mg/kg, po bid administered for 23 days in presence of oxaliplatin. The series is classed as functional, organism-based. The following applies: time 23.0 day.
Series [6] is described as follows: Plasma protein binding in rat at 10 uM assessed as bound fraction. It counts as ADME, cell-free. The settings on record: read-out: PPB (converted).
Series [7] relates to EG7. As to the kind of experiment: Antitumor activity against mouse EG7 cells implanted in C57BL/6 mouse assessed as activation of tumor-directed immune response by measuring increase in tumor-infiltrating CD8 positive cells at 50 mg/kg, po bid measured after 14 days by flow cytometry. The series is classed as functional, organism-based. The settings on record: time 14.0 day.

Series [8] concerns the target T1, 5'-nucleotidase (Homo sapiens, UniProt P21589). Put plainly: Competitive inhibition of soluble C-terminal 6His-tagged recombinant human CD73 (27 to 547 residues) expressed in CHO cells assessed as inhibition constant incubated for 1 hr by malachite green based spectrophotometer assay. The series is classed as cell-based.
A short description of series [9]: Drug concentration in tumor of mouse implanted with mouse EG7 cells at 10 to 50 mg/kg, po bid administered for 20 days and measured after 16 hrs post-last dose by LC/MS analysis. It counts as ADME, organism-based, Neoplasm. The settings on record: dose 10-50 mg/kg, time 20 day, read-out: Ct.
The target of series [10] is T1, 5'-nucleotidase. As to the kind of experiment: Competitive inhibition of cell surface anchored CD73 (unknown origin) expressed in human SK-MEL-28 cells assessed as inhibition constant incubated for 30 mins by malachite green assay. The series is classed as cell-based.
The test system of series [11] is EG7. As to the kind of experiment: Antiproliferative activity against mouse EG7 cells at 100 uM incubated for 3 days by Cell Titer-Glo assay. The series is classed as functional, cell-based. The following applies: time 3.0 day. For orientation: Cellular ATP, detected with luciferase, serves as a proxy for viable cell number.
The next series has as its target Cytochrome P450 2C19 (Homo sapiens, UniProt P33261). Put plainly: Inhibition of human CYP2C19 at 10 uM. It counts as ADME.
Series [12] is described as follows: Cytotoxicity against human CD8-positive T cells at 100 uM incubated for 4 days by Cell Titer-Glo assay. The following applies: 96 h, time 4 day. The series is classed as toxicity, cell-based.
The subject of the next series is CD8-positive T cell. As to the kind of experiment: Reversal of AMP-mediated suppression of human CD8-positive T cell proliferation at 0.01 to 1000 nM measured after 4 days by flow cytometry. It counts as functional, cell-based. The settings on record: dose 0.01-1000 nM, time 4.0 day. (In general: A flow cytometer gives signals particle by particle.)
Series [13] in a line: In vivo inhibition of plasma CD73 in mouse xenografted with mouse EG7 cells at 50 mg/kg, po bid administered for 20 days and measured after 2 hrs post last dose in presence of 15N5-AMP and TNAP inhibitor by LC/MS analysis relative to control. The series is classed as functional. The following applies: EG7, 480 h, time 20 day.
Series [14] in a line: Plasma protein binding in monkey at 10 uM assessed as bound fraction. The following applies: rhesus monkey, read-out: PPB (converted). It counts as ADME, cell-free, Macaca mulatta.
Series [15] has as its target T2, 5'-nucleotidase (Mus musculus, UniProt Q61503).
T2 sequence (Q61503 whole entry): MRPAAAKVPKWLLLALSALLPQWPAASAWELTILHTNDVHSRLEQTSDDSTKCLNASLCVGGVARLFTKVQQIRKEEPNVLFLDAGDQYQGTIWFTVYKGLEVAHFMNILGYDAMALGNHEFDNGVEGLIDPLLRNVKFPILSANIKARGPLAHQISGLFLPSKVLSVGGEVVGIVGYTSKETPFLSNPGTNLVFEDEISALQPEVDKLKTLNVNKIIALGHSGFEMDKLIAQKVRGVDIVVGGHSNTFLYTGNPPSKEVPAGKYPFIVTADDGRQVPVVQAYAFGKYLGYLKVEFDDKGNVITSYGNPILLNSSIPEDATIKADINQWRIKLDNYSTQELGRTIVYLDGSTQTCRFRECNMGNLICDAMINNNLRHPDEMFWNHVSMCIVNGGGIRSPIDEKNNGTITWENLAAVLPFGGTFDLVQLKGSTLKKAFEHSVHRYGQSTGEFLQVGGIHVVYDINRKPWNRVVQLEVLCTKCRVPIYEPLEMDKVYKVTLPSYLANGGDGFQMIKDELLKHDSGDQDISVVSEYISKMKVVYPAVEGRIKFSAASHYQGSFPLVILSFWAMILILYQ
As to the kind of experiment: Inhibition of C-terminal 6His-tagged recombinant mouse CD73 (29 to 549 residues) expressed in CHO cells incubated for 1 hr by malachite green assay. The series is classed as cell-based.

Series [16] concerns the target T1, 5'-nucleotidase. Put plainly: Inhibition of CD73 in human plasma incubated for 15 mins in presence of 15N5-AMP by LC/MS analysis. It counts as cell-free.
The nature of series [17]: AUC (0 to 24 hrs) in CD rat at 50 mg/kg, po measured for 24 hrs by LC-MS/MS analysis. It counts as ADME, organism-based. On the set-up: time 24 hrs, dose 50 mg/kg, route po. The settings on record: in vivo.
Another series deals with T3, Cytochrome P450 1A2 (Homo sapiens, UniProt P05177).
T3 sequence (P05177 whole entry): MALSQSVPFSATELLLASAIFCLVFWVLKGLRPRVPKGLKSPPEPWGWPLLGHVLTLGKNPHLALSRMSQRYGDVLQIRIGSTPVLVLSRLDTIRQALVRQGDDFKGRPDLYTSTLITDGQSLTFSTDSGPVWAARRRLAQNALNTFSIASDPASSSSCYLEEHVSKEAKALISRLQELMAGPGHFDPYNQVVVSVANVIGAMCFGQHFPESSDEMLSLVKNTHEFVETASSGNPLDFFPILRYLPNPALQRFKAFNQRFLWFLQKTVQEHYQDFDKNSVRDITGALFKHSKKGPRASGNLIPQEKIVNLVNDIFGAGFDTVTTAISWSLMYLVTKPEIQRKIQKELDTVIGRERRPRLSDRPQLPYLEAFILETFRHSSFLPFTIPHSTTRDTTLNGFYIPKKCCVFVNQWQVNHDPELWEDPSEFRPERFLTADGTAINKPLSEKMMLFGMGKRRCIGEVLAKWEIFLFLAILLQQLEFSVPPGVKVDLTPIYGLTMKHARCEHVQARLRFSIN
As to the kind of experiment: Inhibition of human CYP1A2 at 10 uM. The series is classed as ADME.

The next series deals with Cytochrome P450 3A4 (Homo sapiens, UniProt P08684). As to the kind of experiment: Inhibition of human CYP3A4 at 10 uM. It counts as ADME.
Cytochrome P450 3A4, sequence (P08684 whole entry): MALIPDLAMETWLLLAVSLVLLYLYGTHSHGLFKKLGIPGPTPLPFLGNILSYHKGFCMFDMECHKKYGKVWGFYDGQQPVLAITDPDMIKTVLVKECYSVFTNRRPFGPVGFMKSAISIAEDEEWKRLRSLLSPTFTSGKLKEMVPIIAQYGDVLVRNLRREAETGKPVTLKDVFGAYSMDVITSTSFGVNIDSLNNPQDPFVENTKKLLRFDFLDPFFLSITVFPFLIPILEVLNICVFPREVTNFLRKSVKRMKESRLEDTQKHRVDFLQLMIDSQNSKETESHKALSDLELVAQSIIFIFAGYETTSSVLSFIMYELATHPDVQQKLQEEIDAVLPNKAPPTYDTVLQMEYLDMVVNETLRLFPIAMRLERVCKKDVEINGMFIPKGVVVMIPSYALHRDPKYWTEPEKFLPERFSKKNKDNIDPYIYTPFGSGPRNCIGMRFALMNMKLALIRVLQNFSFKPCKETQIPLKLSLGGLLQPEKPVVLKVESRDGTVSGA
Series [18] can be described thus: Cmax in CD rat at 500 mg/kg, po measured for 24 hrs by LC-MS/MS analysis. The series is classed as ADME, organism-based. Further details: dose 500 mg/kg, time 24 hrs, route po. The settings on record: in vivo.

In brackets after ≈: the same amount, converted by molar mass. Activity calls are given as the source filed them. The rule behind the calls is not given here.

T1 sequence (P21589 whole entry, the tested form may be a part): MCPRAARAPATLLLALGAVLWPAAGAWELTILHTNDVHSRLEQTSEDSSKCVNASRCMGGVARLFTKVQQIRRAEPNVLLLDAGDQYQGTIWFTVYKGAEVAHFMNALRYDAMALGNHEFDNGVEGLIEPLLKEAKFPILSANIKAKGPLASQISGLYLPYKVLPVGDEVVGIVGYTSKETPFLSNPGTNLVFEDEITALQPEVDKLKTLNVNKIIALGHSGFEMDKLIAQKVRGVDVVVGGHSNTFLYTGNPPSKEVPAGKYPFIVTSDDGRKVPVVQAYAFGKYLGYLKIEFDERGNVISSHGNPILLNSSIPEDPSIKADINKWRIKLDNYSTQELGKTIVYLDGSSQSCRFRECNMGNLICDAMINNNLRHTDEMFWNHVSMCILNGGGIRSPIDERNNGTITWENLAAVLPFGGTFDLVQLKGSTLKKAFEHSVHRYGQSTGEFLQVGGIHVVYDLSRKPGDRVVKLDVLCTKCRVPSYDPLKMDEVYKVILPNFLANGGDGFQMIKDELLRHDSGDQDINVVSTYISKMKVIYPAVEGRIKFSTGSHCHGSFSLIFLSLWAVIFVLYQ
Cytochrome P450 2C19, sequence (P33261 whole entry): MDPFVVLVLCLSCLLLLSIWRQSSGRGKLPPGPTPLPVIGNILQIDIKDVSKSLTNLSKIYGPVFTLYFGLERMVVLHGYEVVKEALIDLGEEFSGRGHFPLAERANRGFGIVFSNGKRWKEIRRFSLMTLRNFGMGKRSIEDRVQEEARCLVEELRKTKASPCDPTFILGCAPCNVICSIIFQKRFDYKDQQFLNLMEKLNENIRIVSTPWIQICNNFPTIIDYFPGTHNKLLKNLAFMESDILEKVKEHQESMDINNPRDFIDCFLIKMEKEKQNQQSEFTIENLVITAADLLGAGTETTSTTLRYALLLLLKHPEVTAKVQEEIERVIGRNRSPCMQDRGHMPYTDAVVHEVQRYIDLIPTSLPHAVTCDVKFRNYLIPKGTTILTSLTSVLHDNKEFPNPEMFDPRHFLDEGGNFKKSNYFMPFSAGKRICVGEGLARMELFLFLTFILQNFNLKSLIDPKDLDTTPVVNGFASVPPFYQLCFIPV

For `C#C[C@@]1(O)[C@@H](COC(Cc2ccc(N3CCCNC3=O)cc2)(C(=O)O)C(=O)O)O[C@@H](n2cnc3c(N)nc(Cl)nc32)[C@@H]1O`, the results for the concentration at 24 h in series [1] and in [3] were > 1 nM and > 3 nM, respectively. The Cmax was 1800 nM in series [2] and 11000 nM in series [18]. The solubility in series [4] stood at 3880 µg/mL (≈ 6.3 mM). Also, the result in the series on EG7 [5], with EG7 [7] and with CD8-positive T cell was Active. The fraction unbound at 10 µM was 0.29 in series [6] and 0.4 in [14]. The Ki stood at 0.038 nM on 5'-nucleotidase [8] and 0.11 nM at 5'-nucleotidase [10]. Also, the concentration at 480 h in series [9] is > 3 nM. In the series on EG7 [11], the result was inactive. The “inhibition (INH)” value against Cytochrome P450 2C19, at Cytochrome P450 1A2 and on Cytochrome P450 3A4 was “Not Active” in each case. The Activity result in [12] is “Non-Toxic”. Further, the inhibition in vivo at 50 mg/kg in [13] is 92%. For the same compound, at 5'-nucleotidase [15], the concentration for half-maximal inhibition (IC50) came out at 1.3 nM. On 5'-nucleotidase [16], the IC90 turned out to be 3 nM. The same compound came in with an AUC in [17] of 580 ng·h/mL.
